Source: ChEMBL document CHEMBL4130585, “Pimentelamines A-C, Indole Alkaloids Isolated from the Leaves of the Australian Tree Flindersia pimenteliana” (J Nat Prod, 2017)
Calls of active or inactive are those of the source. No cut-off for these calls is given here.

Experiments:
[1] = tested on: Plasmodium falciparum; assay: Antimalarial activity against chloroquine-sensitive Plasmodium falciparum 3D7 after 72 hrs by DAPI staining based confocal microplate imaging method; assay type: functional, organism-based; conditions: 3D7, 72 h
[2] = tested on: Plasmodium falciparum; assay: Growth inhibition of chloroquine-resistant Plasmodium falciparum Dd2 at 40 uM after 72 hrs by DAPI staining based confocal microplate imaging method relative to control; assay type: functional
[3] = Selectivity index, ratio of IC50 for HEK293 cells to IC50 for chloroquine-sensitive Plasmodium falciparum 3D7; assay type: toxicity; conditions: human, read-out: Ratio IC50
[4] = tested on: HEK293; assay: Cytotoxicity against HEK293 cells after 72 hrs by resazurin dye based assay; assay type: cell-based; conditions: Homo sapiens, HEK293, 72 h
[5] = tested on: Plasmodium falciparum; assay: Antimalarial activity against chloroquine-resistant Plasmodium falciparum Dd2 after 72 hrs by DAPI staining based confocal microplate imaging method; assay type: functional, organism-based; conditions: Dd2, 72 h
[6] = tested on: Plasmodium falciparum; assay: Antimalarial activity against chloroquine-sensitive Plasmodium falciparum 3D7 at 40 uM after 72 hrs by DAPI staining based confocal microplate imaging method; assay type: functional, organism-based
[7] = tested on: HEK293; assay: Cytotoxicity against HEK293 cells at 40 uM after 72 hrs by resazurin dye based assay; assay type: cell-based; conditions: human, hek293, 72 h
[8] = tested on: Plasmodium falciparum; assay: Antimalarial activity against chloroquine-sensitive Plasmodium falciparum 3D7 at 5 uM after 72 hrs by DAPI staining based confocal microplate imaging method relative to control; assay type: functional

Row | Structure (SMILES) | IC50 [1] [µM] | inhibition of growth at 40 µM ([2]; Dd2, 72 h, read-out: GI) [%] | selectivity ratio [3] | IC50 [4] [µM] | IC50 [5] [µM] | growth inhibition (GI) [2] | Activity [6] | Activity [7] | Activity [8] [%]
1 | CCc1nc(N)nc(N)c1-c1ccc(Cl)cc1 [PYRIMETHAMINE] | 0.006 | 59 | 120 | 0.69 |  |  |  |  | 
2 | CC1=C[C@H]2[C@@H]([C@@H](c3[nH]c4ccccc4c3CCN(C)C)[C@]34CCN(C)[C@]23Nc2ccccc24)C(C)(C)C1 | 0.51 |  | 14 | 7.1 | 0.34 |  |  |  | 
3 | C[C@H]1[C@@H](O)O[C@@H]2O[C@@]3(C)CC[C@H]4[C@H](C)CC[C@@H]1[C@@]24OO3 [ARTENIMOL] | 0.0003 |  | 38100 | 9.9 | 0.0004 |  |  |  | 
4 | CNCCc1c(C[C@@H]2O[C@]34OC[C@H](O)[C@H]3OC(=O)[C@]4(O)C2(C)C)[nH]c2ccccc12.O=C(O)C(F)(F)F |  |  |  |  |  | inactive | inactive | Non-Toxic | 
5 | CNCCc1c([C@@H]2[C@@H]3[C@H](C=C(C)CC3(C)C)[C@]34Nc5ccccc5[C@]23CCN4C)[nH]c2ccccc12 | 0.31 |  | 16 | 5 | 0.22 |  |  |  | 
6 | COc1ccc(C[C@H](N)C(=O)N[C@H]2[C@@H](O)[C@H](n3cnc4c(N(C)C)ncnc43)O[C@@H]2CO)cc1 [PUROMYCIN] |  |  | 8 | 0.45 to 0.69 | 0.032 |  |  |  | 100
7 | COc1ccc2nc3cc(Cl)ccc3c(Nc3cc(CN4CCCC4)c(O)c(CN4CCCC4)c3)c2n1 [PYRONARIDINE] |  |  | 239 | 2.9 | 0.14 |  |  |  | 
8 | CC1=C[C@@H]2c3c(CCN(C)C)c4ccccc4n3[C@@H](c3[nH]c4ccccc4c3CCN(C)C)[C@@H]2C(C)(C)C1 | 0.67 |  | 8 | 5.4 | 0.19 |  |  |  | 
9 | C[C@@H]1O[C@@H](Oc2c(-c3ccc(O)c(O)c3)oc3cc(O)cc(O)c3c2=O)[C@H](O)[C@H](O)[C@H]1O [QUERCITRIN] |  |  |  |  |  | inactive | inactive | Non-Toxic | 
10 | CC1(C)C=Cc2c(cc3oc(-c4ccc(O)cc4)cc(=O)c3c2O)O1 | 3.4 |  | > 6 |  | 2.3 |  |  | Non-Toxic | 
11 | C[C@H]1[C@H](OC(=O)CCC(=O)O)O[C@@H]2O[C@@]3(C)CC[C@H]4[C@H](C)CC[C@@H]1[C@@]24OO3 [ARTESUNATE] | 0.001 |  | 7990 | 7 |  |  |  |  | 
12 | CCN(CC)CCCC(C)Nc1ccnc2cc(Cl)ccc12 (stereo not drawn) [CHLOROQUINE] |  |  |  | 0.49 |  |  |  |  | 
13 | CC1(C)[C@H](Cc2[nH]c3ccccc3c2CC[N+](C)(C)O)O[C@]23OC[C@H](O)[C@H]2OC(=O)[C@]13O.O=C([O-])C(F)(F)F | 3.6 |  | > 6 |  | 2.7 |  |  | Non-Toxic | 
14 | CN(C)CCc1c(C[C@@H]2O[C@]34OC[C@H](O)[C@H]3OC(=O)[C@]4(O)C2(C)C)[nH]c2ccccc12.O=C(O)C(F)(F)F |  |  |  |  |  | inactive | inactive | Non-Toxic | 
